Measurements published in US20050065041A1, “GELLED ACID” (SCHLUMBERGER TECHNOLOGY CORPORATION, priority 2003, published 2005).
In brackets after ≈: the same amount, converted by molar mass. Like-named read-outs stand apart in the source and are kept apart here.

Columns and labels:
[1] = Bioaccumulation (Log Pow), OECD Method 117; type: physicochemical; conditions: component in aqueous composition of Table 2
Description: (§1) The bioaccumulation testing was done according to Organization of Economic Co-operation and Development, Paris, (OECD) Method 117. The biodegradation tests were done according to OECD 306. The toxicity tests were done according to the protocol required for application in the North Sea as recommended by OSPAR (the Oslo Paris Commission) for completion of HOCNF (Harmonized Offshore Chemical Notification Format) requirements. The methods are those in effect as of August, 2003, and the MSDS data and public health, safety and environment data given below are as of August, 2003.

Skeletonema Costatum = assay: OSPAR/HOCNF aquatic toxicity test, Skeletonema Costatum; type: in vivo
Description: as §1
(§2) However, in addition to the excellent toxicity results shown in Table 2, in further OSPAR tests, 2-butanoneoxime had NOEC (No Observable Effect Concentration) values of 8.9 mg/L for Acartia tonsa (48 hours), 1000 mg/L for Scophthalamus maximus juvenile (96 hours), and 99.7 mg/L for Skeletonema Costatum (72 hours), and the 15 day BOD was 6.5%.

[2] = tested on: Scophthalamus maximus juvenile; assay: OSPAR/HOCNF aquatic toxicity test, Scophthalamus maximus juvenile; type: in vivo
Description: as §1, §2

[3] = Diversion test in limestone cores; conditions: 65.5° C., SDA fluid 5% HCl
Method: Diversion: Tests were completed with one-inch diameter and 4 inch length cores of Indiana Limestone. The initial permeability of each was determined with 3% NaCl brine in both the production and treatment directions prior to treatment with the gelled acid fluid. Then the gelled fluid was pumped at a constant pressure of about […] in the treatment direction. The time for acid break-through was also recorded. All tests were completed at 65.5° C. and constant pressure. Three cores were used to test for diversion in each case; two cores were about 18 to about 24 md and 1 core was about 45 to about 60 md. The initial and final permeabilities were determined. After the tests, all cores were CT scanned, cross sectional view, to visualize the wormholing.

[4] = OSPAR/HOCNF aquatic toxicity test, Acartia tonsa; type: in vivo; conditions: Acartia tonsa, in vivo; 48 hr; read-out: Acartia tonsa LC 50 48 hr
Description: as §1, §2

Acartia tonsa = assay: OSPAR/HOCNF aquatic toxicity test, Acartia tonsa; type: in vivo
Description: as §1, §2

[5] = MSDS and public data as of August, 2003; cited from earlier work
[6] = Iron reduction as a function of HCl spending; conditions: reagent 2.00%
Method: Iron Reduction Performance: All solutions were prepared as indicated using about 0.5% by volume of a concentrate having about 40 weight percent FeCl3, and analyses were done with a HACH 2000 calorimeter, obtained from Hach Company, Loveland, Colo. Standard analyses were as described in the “Water Analyses Handbook,” Hach Company. Total iron was obtained by the FerroZine procedure by form ation of a purple complex observable at 562 nm. The ferrous iron content was determined by the phenanthroline complex procedure determined at 510 nm. An orange complex is formed which is proportional to the iron content. For each analysis, samples of the test solution were taken and diluted 1:100 with water and the appropriate, premeasured reagent pillows were added to the solution. Measurements were determined calorimetrically employing standards for the analyses. For ferrous content, analyses were made quickly to prevent oxidation due to air. Total iron required 5 minutes reaction time. If ferric content was needed, the content was obtained by difference.
The selected iron reducing agent should […] reduce the ferric iron in acid solutions. […] For each of these tests 2.0% of an approximately 10 to 12% aqueous solution or reducing agent or reducing agent precursor was evaluated. This represents approximately twice the concentration to adequately reduce the quantity of Fe^+3 present.

[7] = Iron reduction performance: effect of pH and reagent concentration
[8] = OECD 306B, seawater; cited from earlier work
[9] = HPLC Method OECD 117; cited from earlier work
Abra alba = assay: OSPAR/HOCNF toxicity test, Abra alba; type: in vivo; conditions: printed in the column headed Scophthalamus maximus juvenile EC 50 96 hr
Description: as §1

[10] = Acid spending tests with residue analysis at 121° C.; conditions: 6.89 MPa, six hours
Method: Acid spending tests were designed and implemented to analyze for residue for spending tests completed at 121° C. These tests were done with amounts chosen such that not all the limestone could be dissolved. […] Reducing agents and reducing agent precursors were evaluated and compared with hydrazinium hydrochloride. Indiana Limestone was crushed and approximately 25 grams of the limestone chips were placed in ajar that would fit a small autoclave. The gelled acid (2.25-ml of gelled acid solution per gram of chips) was added to the limestone chips, stirred to mix well, placed in the autoclave, pressurized to 6.89 mPa, heated to 121° C. and maintained for six hours. At the conclusion of the test, the autoclave was cooled and depressurized. The jar and contents were removed for examination and analysis.
The spent gelled acid was poured through a strainer to observe the fluid and to determine whether the gel was broken. The chips were also rinsed with deionized water to remove gel and residue from the chips, which were examined and then dried and the final weight determined. All residues were rinsed from the jar and chips, combined, and filtered through a pre-weighed Whatman 541 filter paper. The filter paper was dried to a stable weight to obtain the residue weight.

[11] = Biodegradation (BOD), OECD 306; conditions: 28 day
Description: as §1

[12] = Core 2 (highest permeability core)
[13] = Test 2: 90% Spent 15% HCl + 0.50% FeCl3
[14] = Test 3: 95% Spent 15% HCl + 0.50% FeCl3
[15] = Test 4: 99% Spent 15% HCl + 0.50% FeCl3
[16] = Test 5: 99.5% Spent 15% HCl + 0.50% FeCl3
[17] = Test 1: DI water + 0.50% FeCl3 (pH 2.03), reagent concentration 0.50%
[18] = Test 1: DI water + 0.50% FeCl3 (pH 2.03), reagent concentration 1.00%
[19] = Test 1: DI water + 0.50% FeCl3 (pH 2.03), reagent concentration 1.25%
[20] = Test 2: 15% HCl + 0.50% of a 40% FeCl3 Aqueous Solution, reagent concentration 0.50%
[21] = Test 2: 15% HCl + 0.50% of a 40% FeCl3 Aqueous Solution, reagent concentration 1.00%
[22] = Test 2: 15% HCl + 0.50% of a 40% FeCl3 Aqueous Solution, reagent concentration 1.25%
[23] = Test 2: 15% HCl + 0.50% of a 40% FeCl3 Aqueous Solution, reagent concentration […]
[24] = Test 3: 50% water/CaCl2 + 10% 15% HCl + 0.50% FeCl3, reagent concentration 0.50%
[25] = Test 3: 50% water/CaCl2 + 10% 15% HCl + 0.50% FeCl3, reagent concentration 1.00%
[26] = Test 3: 50% water/CaCl2 + 10% 15% HCl + 0.50% FeCl3, reagent concentration 1.25%
[27] = Test 1: DI water + 0.50% FeCl3 (pH 2.03), reagent concentration 1.50%
[28] = Test 1: DI water + 0.50% FeCl3 (pH 2.03), reagent concentration 2.00%
[29] = Test 2: 15% HCl + 0.50% of a 40% FeCl3 Aqueous Solution, reagent concentration 1.50%
[30] = Test 2: 15% HCl + 0.50% of a 40% FeCl3 Aqueous Solution, reagent concentration 2.00%
[31] = Test 3: 50% water/CaCl2 + 10% 15% HCl + 0.50% FeCl3, reagent concentration 1.50%
[32] = Test 3: 50% water/CaCl2 + 10% 15% HCl + 0.50% FeCl3, reagent concentration 2.00%

CCC(C)=NO [2-Butanone oxime]
chromatographic logP ([1]; octanol/water): 1.38
NOEC (No Observable Effect Concentration) Skeletonema Costatum (Skeletonema Costatum; 72 hours): 99.7 mg/L
EC50 (Skeletonema Costatum; Skeletonema costatum, 72 h, read-out: Skeletonema Costatum EC50 72 hr): 470 µg/mL (≈ 5.39 mM)
EC50 ([2]; 96 h, read-out: Scophthalamus maximus juvenile EC 50 96 hr): > 3000 µg/mL
NOEC (No Observable Effect Concentration) Scophthalamus maximus juvenile ([2]; 96 hours): 1000 mg/L
Final Permeability ([3]; Core 1): 34.1 md
Final Permeability [3, 12]: >5000 md
Final Permeability ([3]; Core 3): 49.6 md
LC50 at 48 h [4]: 6930 µg/mL (≈ 79.6 mM)
NOEC (No Observable Effect Concentration) Acartia tonsa (Acartia tonsa; 48 hours): 8.9 mg/L

NN [Hydrazine]
hazard rating [5]: toxic to aquatic species

NNC(=O)NN [Carbohydrazide]
hazard rating [5]: harmful and an irritant
Iron % reduced ([6]; Test 1: 15% HCl + 0.50% FeCl3): 1.8%
Iron Content Fe+2 ([6]; Test 1: 15% HCl + 0.50% FeCl3): 20 mg/L
Iron % reduced [6, 13]: 8.0%
Iron Content Fe+2 [6, 13]: 90 mg/L
Iron % reduced [6, 14]: 1.6%
Iron Content Fe+2 [6, 14]: 20 mg/L
Iron % reduced [6, 15]: 20.0%
Iron Content Fe+2 [6, 15]: 160 mg/L
Iron % reduced [6, 16]: 12.3%
Iron Content Fe+2 [6, 16]: 90 mg/L
Iron % reduced [7, 17]: 27.3%
Iron Content Fe+2 [7, 17]: 390 mg/L
Iron % reduced [7, 18]: 38.5%
Iron Content Fe+2 [7, 18]: 550 mg/L
Iron % reduced [7, 19]: 46.9%
Iron Content Fe+2 [7, 19]: 670 mg/L
Iron % reduced [7, 20]: 0.8%
Iron Content Fe+2 [7, 20]: 10 mg/L
Iron % reduced [7, 21]: 12.2%
Iron Content Fe+2 [7, 21]: 160 mg/L
Iron % reduced [7, 22]: 29.8%
Iron Content Fe+2 [7, 22]: 390 mg/L
Iron % reduced [7, 23]: 0.8%
Iron Content Fe+2 [7, 23]: 10 mg/L
Iron % reduced [7, 24]: 13%
Iron Content Fe+2 [7, 24]: 160 mg/L
Iron % reduced [7, 25]: 15%
Iron Content Fe+2 [7, 25]: 190 mg/L
Iron % reduced [7, 26]: 15%
Iron Content Fe+2 [7, 26]: 190 mg/L
EC50 (Skeletonema Costatum; Skeletonema costatum, 72 h; read-out: Skeletonema Costatum EC50 72 hr): 56.7 µg/mL (≈ 0.629 mM)

CCN(O)CC [Diethylhydroxylamine, Diethylhydroxyl amine]
hazard rating [5]: harmful and an irritant
Iron % reduced ([6]; Test 1: 15% HCl + 0.50% FeCl3): 54.4%
Iron Content Fe+2 ([6]; Test 1: 15% HCl + 0.50% FeCl3): 620 mg/L
Iron % reduced [6, 13]: 66.4%
Iron Content Fe+2 [6, 13]: 750 mg/L
Iron % reduced [6, 14]: 74.4%
Iron Content Fe+2 [6, 14]: 930 mg/L
Iron % reduced [6, 15]: 88.8%
Iron Content Fe+2 [6, 15]: 710 mg/L
Iron % reduced [6, 16]: 89.0%
Iron Content Fe+2 [6, 16]: 650 mg/L
biodegradation [8]: less than 60%
bioaccumulation (Log Pow), literature value [9]: 0.43
Iron % reduced [7, 17]: 65.7%
Iron Content Fe+2 [7, 17]: 670 mg/L
Iron % reduced [7, 18]: 73.5%
Iron Content Fe+2 [7, 18]: 750 mg/L
Iron % reduced [7, 19]: 75.5%
Iron Content Fe+2 [7, 19]: 770 mg/L
Iron % reduced [7, 27]: 84.3%
Iron Content Fe+2 [7, 27]: 860 mg/L
Iron % reduced [7, 28]: 89.2%
Iron Content Fe+2 [7, 28]: 910 mg/L
Iron % reduced [7, 20]: 34.3%
Iron Content Fe+2 [7, 20]: 350 mg/L
Iron % reduced [7, 21]: 48.0%
Iron Content Fe+2 [7, 21]: 490 mg/L
Iron % reduced [7, 29]: 52.9%
Iron Content Fe+2 [7, 29]: 540 mg/L
Iron % reduced [7, 30]: 83.3%
Iron Content Fe+2 [7, 30]: 850 mg/L
Iron % reduced [7, 24]: 25%
Iron Content Fe+2 [7, 24]: 310 mg/L
Iron % reduced [7, 25]: 42%
Iron Content Fe+2 [7, 25]: 520 mg/L
Iron % reduced [7, 31]: 47%
Iron Content Fe+2 [7, 31]: 590 mg/L
Iron % reduced [7, 32]: 61%
Iron Content Fe+2 [7, 32]: 760 mg/L

Cl.NN [Hydrazinium hydrochloride]
hazard rating [5]: toxic by all routes
Abra alba toxicity (Abra alba): 96 mg/L
Bioaccumulation Log Pow [1]: <0
Residue Remaining [10]: 0.278 g
Skeletonema Costatum EC50 24 hr (Skeletonema Costatum; 24 hr): 0.38 µg/mL
Biodegradability BOD28 day [11]: 84%
Final Permeability ([3]; Core 1): 14.1 md
Final Permeability [3, 12]: >5000 md
Final Permeability ([3]; Core 3): 6.8 md
Acartia tonsa LC 50 48 hr (Acartia tonsa; 48 hr): 0.37 µg/mL
